# Source: patent US20060172951A1, “Age related macular degeneration and cutaneous signs of mercury toxicity” (priority 2005, published 2006)
# Entries after “also recorded” stand apart in the source; their conditions may differ. Counter-ions that a name gives are not always drawn.
# System: Grover's disease
# Test: Treatment of patients with Grover's disease (clinical study)
# Assay type: in vivo, human
# Conditions: three patients with Grover's disease; diet (no seafood) and chelation with Succimer 200-300 mg TID x 1-2 months
# Text: Fourteen patients with Grover's disease (ages 55-85) were randomly selected from a private dermatology practice. All patients were diagnosed using the following criteria: (1) complaints of pruritic eruption of the chest, abdomen or back; (2) physical exam showing discreet small (<2 mm) scattered erythematous scaly or crusted papules of chest, abdomen or back; (3) biopsy showing a superficial perivascular infiltrate of lymphocytes, suprabasal clefts and acantholytic cells. All patients gave verbal consent for a shave biopsy of a skin lesion and a blood test for mercury. Two were women and twelve were men.
# Of the fourteen patients with Grover's disease, all had measurable blood mercury (mean—10 u/Liter). All patients complained of pruritus and were aware of skin lesions. All fourteen patients were treated with topical steroids without improvement.
compound,measurement,value
"O=C(O)[C@@H](S)[C@@H](S)C(=O)O [Succimer, 2,3-dimercaptosuccinic acid or salt thereof]",Effect of treatment on the cutaneous eruption of Grover's disease,clearing of the eruption; also recorded: beneficial effect
